From patent US4217355A, “Amide therapeutic agents” (Pfizer Inc., priority 1978, dated 1980)

The compounds below were run on carrageenin-induced edema in the hind paw (assay: carrageenin-induced rat food edema test (inhibition of edema formation in the hind paw)). Settings: rat, oral, 1.0 mg./kg.
Format: in vivo, male albino rats
Experimental: A. Winter et al., Proc. Soc. Exp. Biol. Med., Vol. 111, p.
A. Winter et al., as earlier reported in the Proceedings of the Society of Experimental Biology and Medicine, Vol. 111, p. 544 (1962). In this test, anti-inflammatory activity is determined as the percent inhibition of edema formation in the hind paw of male albino rats (weighing 150-190 g.) in response to a sub-plantar injection of carrageenin. The carrageenin is injected as a 1% aqueous suspension (0.05 ml.) one hour after oral administration of the drug, which is normally given in the form of an aqueous solution. Edema formation is then assessed three hours after the carrageenin injection by measuring the volume of the injected paw initially as well as at the three-hour mark. The increase in volume three hours after carrageenin injection constitutes the individual response.
The following N-(2-thiazolyl)amides were tested for anti-inflammatory activity in rats, using the standard carrageen-ininduced rat food edema test, according to the procedure essentially described by C. A. Winter et al., as first reported in the Proceedings of the Society for Experimental Biology and Medicine, Vol. 111, p. 544 (1962). […]

| SMILES | % Inhibition of edema formation (swelling) |
| --- | --- |
| Cl.O=C(CNCc1ccccc1)Nc1nccs1 [N-(2-thiazolyl)-α-benzylaminoacetamide hydrochloride] | 35% |

Same assay, conditions: rat, oral, 3.3 mg./kg.

| SMILES | % Inhibition of edema formation |
| --- | --- |
| Cl.O=C(CNCc1ccccc1)Nc1nccs1 [N-(2-thiazolyl)-α-benzylaminoacetamide hydrochloride] | 47% |

Same assay, conditions: rat, oral, 10 mg./kg.

| SMILES | % Inhibition of edema formation |
| --- | --- |
| Cl.O=C(CNCc1ccccc1)Nc1nccs1 [N-(2-thiazolyl)-α-benzylaminoacetamide hydrochloride] | 54% |

Same assay, conditions: rat, oral, 33 mg./kg., three hours after carrageenin injection

| SMILES | % Inhibition of edema formation |
| --- | --- |
| CNCC(=O)Nc1nc(C)cs1 [X=CH3, R1=H, R2=methyl, N-(4-methyl-2-thiazolyl)-α-methylaminoacetamide] | 53% |
| CNCC(=O)Nc1nccs1 [X=H, R1=H, R2=methyl, N-(2-thiazolyl)-α-methylaminoacetamide] | 54% |
| O=C(CNCc1ccc(F)cc1)Nc1nccs1 [X=H, R1=H, R2=p-fluorobenzyl, N-(2-thiazolyl)-α-(p-fluorobenzylamino)acetamide] | 48% |
| O=C(CNCCc1ccccc1)Nc1nccs1 [X=H, R1=H, R2=β-phenylethyl, N-(2-thiazolyl)-α-(β-phenylethylamino)acetamide] | 53% |
| O=C(Nc1nccs1)C1CCCCN1 (stereo not shown) [X=H, R=2-piperidyl, N-(2-thiazolyl)piperidine-2-carboxamide] | 55% |
| O=C(Nc1nccs1)C1CCCN1 (stereo not shown) [X=H, R=2-pyrrolidinyl, N-(2-thiazolyl)pyrrolidine-2-carboxamide] | 48% |

The compounds below were run on murine thymus cells (assay: lymphocyte stimulation assay (LSA), in vitro lymphocyte proliferation of murine thymus cells cultured in the presence of Concanavalin A). Settings: in vitro; Con A present; 48 hours at 37° C.; score at drug level with maximum activity.
Format: cell-based, male C57B1/6 mice
Text: On the other hand, the activity of the compounds of the present invention, as immunoregulator agents, is based on a study of their ability to stimulate, in vitro, the lymphocyte proliferation of murine thymus cells cultured in the presence of Concanavalin A (Con A) by employing the general evaluation procedure of V. J. Merluzzi et al., as described in the Journal of Clinical and Experimental Immunology, Vol. 22, p. 486 (1975).
486 (1975). The cells were derived from male C57B1/6 mice of from 6-8 weeks age, purchased from the Jackson Laboratories of Bar Harbor, Maine and the Con A was obtained from Sigma Chemicals of St. Louis, Missouri. Each cell culture (consisting of 0.10 ml. thymus cells stock solution, 0.05 ml. of Con A stock solution and 0.05 ml. of drug solution) was performed in quadruplicate and cellular proliferation was measured, after 48 hours of incubation at 37° C., by pulsing each culture with ^3 H-thymidine (0.01 ml. of specific activity 1.9 C/mM, obtained from Schwarz-Mann, Inc. of Orangeburg, N.Y.) and then determining the incorporation of ^3 H-thymidine into cellular desoxyribonucleic acid (DNA) by an assessment of radioactivity using a liquid scintillation counter.

| SMILES | LSA Activity |
| --- | --- |
| Cc1csc(NC(=O)C(N)Cc2ccccc2)n1 (stereo not drawn) [X=CH3, R1=C6 H5 CH2, R2=hydrogen, N-(4-methyl-2-thiazolyl)-α-amino-β-phenylpropionamide] | +++ (those having an activity greater than levamisole (27,000±1,000 cpm) were scored as +++) |
| Cc1csc(NC(=O)C(C)N)n1 (stereo not drawn) [X=CH3, R1=CH3, R2=hydrogen, N-(4-methyl-2-thiazolyl)-α-aminopropionamide] | +++ (those having an activity greater than levamisole (27,000±1,000 cpm) were scored as +++) |
| Cc1csc(NC(=O)CNCc2ccccc2)n1 [X=CH3, R1=H, R2=benzyl, N-(4-methyl-2-thiazolyl)-α-benzylaminoacetamide] | +++ (those having an activity greater than levamisole (27,000±1,000 cpm) were scored as +++) |
| CNCC(=O)Nc1nc(C)cs1 [X=CH3, R1=H, R2=methyl, N-(4-methyl-2-thiazolyl)-α-methylaminoacetamide] | +++ (those having an activity greater than levamisole (27,000±1,000 cpm) were scored as +++) |
| Cc1csc(NC(=O)CNCCc2ccccc2)n1 [X=CH3, R1=H, R2=β-phenylethyl, N-(4-methyl-2-thiazolyl)-α-(β-phenylethylamino)acetamide] | +++ (those having an activity greater than levamisole (27,000±1,000 cpm) were scored as +++) |
| Cc1csc(NC(=O)C(N)C(C)C)n1 (stereo not drawn) [X=CH3, R1=iso-C3 H7, R2=hydrogen, N-(4-methyl-2-thiazolyl)-α-aminoisovaleramide] | +++ (those having an activity greater than levamisole (27,000±1,000 cpm) were scored as +++) |
| Cc1csc(NC(=O)C2CCCCN2)n1 (stereo not shown) [X=CH3, R=2-piperidyl, N-(4-methyl-2-thiazolyl)piperidine-2-carboxamide] | +++ (those having an activity greater than levamisole (27,000±1,000 cpm) were scored as +++) |
| CC(N)C(=O)Nc1nccs1 (stereo not drawn) [X=H, R1=CH3, R2=hydrogen, N-(2-thiazolyl)-α-aminopropionamide] | +++ (those having an activity greater than levamisole (27,000±1,000 cpm) were scored as +++) |
| CNC(C)C(=O)Nc1nccs1 (stereo not drawn) [X=H, R1=CH3, R2=methyl, N-(2-thiazolyl)-α-methylaminopropionamide] | +++ (those having an activity greater than levamisole (27,000±1,000 cpm) were scored as +++) |
| O=C(CNCc1ccco1)Nc1nccs1 [X=H, R1=H, R2=2-furfuryl, N-(2-thiazolyl)-α-(2-furfurylamino)acetamide] | ++ (those equal to levamisole (22,000±900 cpm) were scored as ++) |
| O=C(CNCC1CCCO1)Nc1nccs1 (stereo not drawn) [X=H, R1=H, R2=2-tetrahydrofurfuryl, N-(2-thiazolyl)-α-(2-tetrahydrofurfurylamino)acetamide] | ++ (those equal to levamisole (22,000±900 cpm) were scored as ++) |
| O=C(CNCc1cccs1)Nc1nccs1 [X=H, R1=H, R2=2-thenyl, N-(2-thiazolyl)-α-(2-thenylamino)acetamide] | +++ (those having an activity greater than levamisole (27,000±1,000 cpm) were scored as +++) |
| O=C(CNCc1ccc2c(c1)OCO2)Nc1nccs1 [X=H, R1=H, R2=3,4-methylenedioxybenzyl, N-(2-thiazolyl)-α-(3,4-methylenedioxybenzylamino)acetamide] | ++ (those equal to levamisole (22,000±900 cpm) were scored as ++) |
| C=CCNCC(=O)Nc1nccs1 [X=H, R1=H, R2=allyl, N-(2-thiazolyl)-α-allylaminoacetamide] | ++ (those equal to levamisole (22,000±900 cpm) were scored as ++) |
| O=C(CNCC1CCCCC1)Nc1nccs1 [X=H, R1=H, R2=cyclohexylmethyl, N-(2-thiazolyl)-α-cyclohexylmethylaminoacetamide] | ++ (those equal to levamisole (22,000±900 cpm) were scored as ++) |
| O=C(CNC1CCCCCCC1)Nc1nccs1 [X=H, R1=H, R2=cyclooctyl, N-(2-thiazolyl)-α-cyclooctylaminoacetamide] | ++ (those equal to levamisole (22,000±900 cpm) were scored as ++) |
| CCNCC(=O)Nc1nccs1 [X=H, R1=H, R2=ethyl, N-(2-thiazolyl)-α-ethylaminoacetamide] | +++ (those having an activity greater than levamisole (27,000±1,000 cpm) were scored as +++) |
| NCC(=O)Nc1nccs1 [X=H, R1=H, R2=hydrogen, N-(2-thiazolyl)-α-aminoacetamide] | ++ (those equal to levamisole (22,000±900 cpm) were scored as ++) |
| CNCC(=O)Nc1nccs1 [X=H, R1=H, R2=methyl, N-(2-thiazolyl)-α-methylaminoacetamide] | +++ (those having an activity greater than levamisole (27,000±1,000 cpm) were scored as +++) |
| CCCCNCC(=O)Nc1nccs1 [X=H, R1=H, R2=n-butyl, N-(2-thiazolyl)-α-(n-butylamino)acetamide] | ++ (those equal to levamisole (22,000±900 cpm) were scored as ++) |
| CCCNCC(=O)Nc1nccs1 [X=H, R1=H, R2=n-propyl, N-(2-thiazolyl)-α-(n-propylamino)acetamide] | ++ (those equal to levamisole (22,000±900 cpm) were scored as ++) |
| O=C(CNCc1ccc(Cl)cc1)Nc1nccs1 [X=H, R1=H, R2=p-chlorobenzyl, N-(2-thiazolyl)-α-(p-chlorobenzylamino)acetamide] | ++ (those equal to levamisole (22,000±900 cpm) were scored as ++) |
| O=C(CNCc1ccc(F)cc1)Nc1nccs1 [X=H, R1=H, R2=p-fluorobenzyl, N-(2-thiazolyl)-α-(p-fluorobenzylamino)acetamide] | +++ (those having an activity greater than levamisole (27,000±1,000 cpm) were scored as +++) |
| COc1ccc(CNCC(=O)Nc2nccs2)cc1 [X=H, R1=H, R2=p-methoxybenzyl, N-(2-thiazolyl)-α-(p-methoxybenzylamino)acetamide] | +++ (those having an activity greater than levamisole (27,000±1,000 cpm) were scored as +++) |
| Cc1ccc(CNCC(=O)Nc2nccs2)cc1 [X=H, R1=H, R2=p-methylbenzyl, N-(2-thiazolyl)-α-(p-methylbenzylamino)acetamide] | + (those superior to Con A activity but less than levamisole (10,000±700 cpm) were scored as +) |
| O=C(CNCc1ccc(C(F)(F)F)cc1)Nc1nccs1 [X=H, R1=H, R2=p-trifluoromethylbenzyl] | ++ (those equal to levamisole (22,000±900 cpm) were scored as ++) |
| O=C(CNCCc1ccccc1)Nc1nccs1 [X=H, R1=H, R2=β-phenylethyl, N-(2-thiazolyl)-α-(β-phenylethylamino)acetamide] | ++ (those equal to levamisole (22,000±900 cpm) were scored as ++) |
| CC(C)C(N)C(=O)Nc1nccs1 (stereo not drawn) [X=H, R1=iso-C3 H7, R2=hydrogen, N-(2-thiazolyl)-α-aminoisovaleramide] | ++ (those equal to levamisole (22,000±900 cpm) were scored as ++) |
| O=C(Nc1nccs1)C1CCCCN1 (stereo not shown) [X=H, R=2-piperidyl, N-(2-thiazolyl)piperidine-2-carboxamide] | +++ (those having an activity greater than levamisole (27,000±1,000 cpm) were scored as +++) |
| O=C(Nc1nccs1)C1CCCN1 (stereo not shown) [X=H, R=2-pyrrolidinyl, N-(2-thiazolyl)pyrrolidine-2-carboxamide] | +++ (those having an activity greater than levamisole (27,000±1,000 cpm) were scored as +++) |

Same assay, conditions: standard compound; Con A present; 48 hours at 37° C.

| SMILES | 3H-thymidine incorporated (average counts per minute) |
| --- | --- |
| c1ccc([C@H]2CN3CCSC3=N2)cc1 [levamisole, reference compound] | 22,000±900 cpm |
